According to patent US12611416B2, “Methods of treating ischemic stroke at risk for cerebral or cerebellar edema” (REMEDY PHARMACEUTICALS, INC., priority 2024, dated 2026):

Test system: large hemispheric infarction (LHI) patients at high risk for cerebral edema
Experiment: CHARM trial: intravenous glibenclamide in large hemispheric infarction, 90-day mRS shift analysis
Assay type: in vivo, human
Details: for common odds ratio (cOR), 90-day mRS: versus placebo; for lesion volume at which cOR crosses the "no effect" point (cOR=1.0): 90-day mRS, mRS 5 and 6 combined
Description: The CHARM trial evaluated the safety and efficacy of intravenous glibenclamide as a treatment for large hemispheric infarction (LHI) patients at high risk for cerebral edema.
Patients meeting the following criteria were included: • A clinical diagnosis of acute ischemic stroke in the middle cerebral artery (MCA) territory. • A large hemispheric infarction defined as; lesion volume of 80 to 300 centimeters cubed (cm^3) on magnetic resonance imaging (MRI) diffusion-weighted imaging (DWI), or computed tomography perfusion (CTP), or an Alberta Stroke Program Early CT Score (ASPECTS) of 1 to 5 with involvement of at least 2 defined cortical regions. • Screening National Institutes of Health Stroke Scale (NIHSS) >=10. • At the time of randomization, and in the Investigator's judgement, it must be feasible for study drug treatment infusion to be initiated no later than 10 hours after time of symptom onset, if known, or the time last known normal. • Participants who wake with stroke may be included if neurological and other exclusion criteria are satisfied. The time of stroke onset is to be taken as the midpoint between sleep onset (or last known to be normal) and time of waking. • For participants who receive thrombectomy, inclusion into the study must be based on post-thrombectomy MRI-DWI.
Patients meeting the following criteria were excluded: • Participant is likely to have supportive care withdrawn on the first day. • Commitment to decompressive craniectomy (DC) prior to enrollment. • Evidence of concurrent infarction in the contralateral hemisphere sufficiently serious so as to affect functional outcome. Pre-Specified Primary Endpoint • Modified Rankin Scale (mRS) score at 90 days analyzed as a shift analysis using a 5-category ordinal scale with 0/1 and 5/6 collapsed. The primary efficacy analysis was pre-specified to be conducted in participants 18-70 years of age (inclusive) who were randomized and receive study treatment (the modified intent-to-treat [mITT] population].
Five hundred thirty-five subjects were enrolled, with 268 treated with placebo and 267 treated with intravenous glyburide. The mITT population (the primary analysis population), those participants aged […] years who received any study drug, consisted of 431 subjects.
An interaction term between treatment arm and stroke volume was included in an ordinal logistic regression model with 90-day mRS as the dependent variable. Independent variables included age, sex, baseline NIHSS, world region, tissue plasminogen activator, and thrombectomy.

COc1ccc(Cl)cc1C(=O)NCCc1ccc(S(=O)(=O)NC(=O)NC2CCCCC2)cc1 [glibenclamide]
common odds ratio (cOR), 90-day mRS (mITT subjects given glyburide in combination with thrombectomy (n=81), 95% CI 1.10-20.1, p=0.037): 4.69 | lesion volume at which cOR crosses the "no effect" point (cOR=1.0) (mITT subjects with CTP or DWI baseline volume): about 140 cm^3 | lesion volume at which cOR crosses the "no effect" point (cOR=1.0) (mITT subjects with CTP or DWI baseline volume, listed as glyburide): approximately 140 cm^3 | common odds ratio (cOR), 90-day mRS (mITT subjects with CTP or DWI baseline volume, lesion volume less than 85 cm^3, ordinal logistic regression, mRS 0/1 and 5/6 collapsed): about 6 | common odds ratio (cOR), 90-day mRS (mITT, baseline stroke volume ≤120 cm^3 subgroup, 95% CI 1.07-5.01, p=0.034): 2.31
